Measured values: PubChem BioAssay AID608 (Sanford-Burnham Center for Chemical Genomics, 2007)
Calls of active or inactive are those of the source. The rule behind the calls is not given here.

target: Peptidyl-prolyl cis-trans isomerase FKBP1A (Homo sapiens) (UniProt P62942); assay: small-molecule binding to FKBP12 – biophysical, NMR detection (AID 608); conditions: purified FKBP12
Sequence (P62942 whole entry, looked up): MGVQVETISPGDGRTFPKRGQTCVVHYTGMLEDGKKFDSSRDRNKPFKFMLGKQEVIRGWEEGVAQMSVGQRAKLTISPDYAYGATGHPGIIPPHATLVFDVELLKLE

SMILES	Kd
COc1cc(-c2coc3cc(O[C@@H]4O[C@H](CO)[C@@H](O)[C@H](O)[C@H]4O)c(OC)c(O)c3c2=O)cc(O)c1OC	> 4 mM (inactive)
CCc1ccccc1NC(=O)c1cnccn1	> 4 mM (inactive)
OCc1nc2ccccc2s1	> 4 mM (inactive)
CC(=O)c1c(O)cc(C)n(Cc2ccccc2)c1=O	> 4 mM (inactive)
CC1(C)Cc2nc3[nH]c(=S)[nH]c(=O)c3cc2CO1	> 4 mM (inactive)
O=C1C2C3CCC(O3)C2C(=O)N1c1ccccc1 (configuration not stated)	> 4 mM (inactive)
CCN1CC2(C)CC[C@H](OC)[C@]34C2[C@H](O)C2(OCO[C@@]25C[C@H](OC)[C@H]2C[C@]3(O)C5[C@H]2O)C14	> 4 mM (inactive)
COC(CC(=O)O)c1nc2ccccc2s1 (configuration not stated)	> 4 mM (inactive)
CC1CC[C@@]2(OC1)O[C@H]1CC3C4CC[C@@H]5C[C@@H](O)CC[C@]5(C)C4CC[C@]3(C)[C@H]1[C@@H]2C (some centres not stated)	> 4 mM (inactive)
Cc1cc(C)c2ccc[n+]([O-])c2c1O	> 4 mM (inactive)
CC(=O)Nc1sccc1C(=O)NC(N)=O	> 4 mM (inactive)
CCn1nnc2c(NCc3ccccn3)ncnc21	> 4 mM (inactive)
CC(=O)Nc1ccc(S(=O)(=O)Nc2cc(C)on2)cc1	> 4 mM (inactive)
CC(C)=CC(=O)Nc1ccc2c(c1)OCO2	> 4 mM (inactive)
CC1(C)C2CC(=O)[C@]3(C)C(CC[C@@]4(C)[C@H](c5ccoc5)OC(=O)C5OC543)[C@@]2(C)[C@@H](O)C[C@H]1O (some centres not stated)	> 4 mM (inactive)
Cc1ccccc1N1CCN(C(=O)C2CCCCC2)CC1	> 4 mM (inactive)
O=C(O)c1ccc(NC(=O)c2cccs2)cc1	> 4 mM (inactive)
O=C(O)Cc1nc(-c2ccncc2)n[nH]1	> 4 mM (inactive)
CC1(C)N=C2C(=N)C=CC=C2N1O	> 4 mM (inactive)
c1ccc(-n2cnnc2)nc1	> 4 mM (inactive)
Cc1nc(-c2ccc(CO)s2)cs1	> 4 mM (inactive)
Cc1nn2c(nc1=O)SCC2(O)c1ccccc1 (configuration not stated)	> 4 mM (inactive)
CC[C@H](CCC(C)[C@H]1CCC2C3CCC4C[C@@H](O)CC[C@]4(C)C3CC[C@@]21C)C(C)C (some centres not stated)	> 4 mM (inactive)
COC[C@]12CN(C=O)C3[C@@H]4[C@H](OC)C1[C@]3(C1CC3(O)C(OC)C(O)C4(OC(C)=O)C1C3OC(=O)c1ccccc1)[C@@H](OC)C[C@H]2O (some centres not stated)	> 4 mM (inactive)

SMILES	Kd
Cc1ccc(SCc2cc(=O)n3[nH]cnc3n2)cc1	> 4 mM (inactive)
Cc1ccc(-c2c(C)n([O-])c(C)c(C)[n+]2=O)cc1	> 4 mM (inactive)
Cc1ccc(Nc2nnns2)cc1C	> 4 mM (inactive)
O=C(O)Cc1n[nH]c(=O)c2ccccc12	> 4 mM (inactive)
O=C(O)c1ccccc1C(=O)Nc1ccccc1	> 4 mM (inactive)
COC(=O)c1ccc2nsnc2c1	> 4 mM (inactive)
Nc1cc(=O)[nH]c(=S)n1-c1cccc(C(F)(F)F)c1	> 4 mM (inactive)
COc1cc(S(=O)(=O)Nc2cccnc2)ccc1F	> 4 mM (inactive)
O=C1COc2cc(O)ccc21	> 4 mM (inactive)
Cn1cc(Cl)c(C(=O)NC2CCCC2)n1	> 4 mM (inactive)
CCc1ccccc1NC(=O)c1ccoc1C	> 4 mM (inactive)
Cc1cc(NC(=O)CCCn2cnc([N+](=O)[O-])n2)no1	> 4 mM (inactive)
COC(=O)c1noc(C)c1C(C)=O	> 4 mM (inactive)
Cc1ccccc1NC(=S)NCCO	> 4 mM (inactive)
c1ccc(Cc2nnc3sc(-c4cccnc4)nn23)cc1	> 4 mM (inactive)
Cc1nc2ccccc2c(=O)n1CCCn1ccnc1	> 4 mM (inactive)
Cc1n[nH]c(C)c1CN	> 4 mM (inactive)
Nc1nc(-c2ccc(Cl)cc2)nn1C(=O)c1cccnc1	> 4 mM (inactive)
O=C(CS(=O)(=O)c1ccccc1)Nc1nccs1	> 4 mM (inactive)
NC(=O)N1CCc2ccccc21	> 4 mM (inactive)
OCCNc1ccccn1	> 4 mM (inactive)
Cc1noc(C)c1C(=O)N1CCc2ccccc2C1	> 4 mM (inactive)
CC(=O)NC1C(=O)Nc2c(C)cc(C)cc21 (configuration not stated)	> 4 mM (inactive)
Cc1ncc(C[n+]2csc3ccccc32)c(N)n1	> 4 mM (inactive)

SMILES	Kd
CC(O)c1nc2ccccc2[nH]1 (configuration not stated)	> 4 mM (inactive)
COc1ccc(-c2c(C)n([O-])c(C)c(C)[n+]2=O)cc1	> 4 mM (inactive)
CN1CCN(CC(=O)Nc2ccccc2)CC1	> 4 mM (inactive)
Cc1occc1C(=O)Nc1ccc2c(c1)OCO2	> 4 mM (inactive)
COc1cc2c(cc1OC)[C@@]13CCN4CC5=CCOC6CC(=O)N2C1[C@H]6[C@H]5C[C@H]43 (some centres not stated)	> 4 mM (inactive)
COc1ccc(-c2c(O)c3c(OC)c4c(cc3oc2=O)OC(C)(C)CC4)cc1	> 4 mM (inactive)
CC12CCC3C(CC3(C)C)C(C)(CCC1=O)O2 (configuration not stated)	> 4 mM (inactive)
Cc1cccc(N2C(=O)CC(=O)NC2=O)c1	> 4 mM (inactive)
CC(=O)c1sc(NC(=O)C=C(C)C)nc1C	> 4 mM (inactive)
CC(=O)Nc1c(Cl)cnn(-c2ccccc2)c1=O	> 4 mM (inactive)
Cc1cc(C)nc(N2CC(=O)N(C)C2=N)n1	> 4 mM (inactive)
CC(=O)Nc1nnc(-c2ccco2)o1	> 4 mM (inactive)
COc1cc2cc[n+]3cc4c(OC)c(OC)ccc4cc3c2cc1OC	> 4 mM (inactive)
Cc1occc1C(=O)NCc1ccccc1F	> 4 mM (inactive)
COC(=O)C[C@H]1C(C)(C)C(OC(C)=O)[C@]2(O)C=C3C(CC[C@]4(C)C3CC(=O)O[C@H]4c3ccoc3)C1(C)C2=O (some centres not stated)	> 4 mM (inactive)
Nc1ncccc1OCc1ccccc1	> 4 mM (inactive)
CN(C)S(=O)(=O)c1ccc(NC=O)cc1	> 4 mM (inactive)
Cc1ccccc1NC(=O)C1CCC(=O)N1 (configuration not stated)	> 4 mM (inactive)
CC(C)c1ccc(NC(=O)C(N)=O)cc1	> 4 mM (inactive)
CN(C)C(=O)Nc1ccc(F)cc1F	> 4 mM (inactive)
O=c1[nH]cc(NCc2ccccc2)c(=O)[nH]1	> 4 mM (inactive)
CCOCC(=O)NCc1n[nH]c(=O)c2ccccc12	> 4 mM (inactive)
Cc1nc(-c2ccccc2)sc1C(N)=O	> 4 mM (inactive)
O=c1[nH]cc(NCc2ccco2)c(=O)[nH]1	> 4 mM (inactive)

SMILES	Kd
c1ccc(-c2nnc(CNCc3ccco3)o2)cc1	> 4 mM (inactive)
O=C(c1ccc(N2CCNCC2)cc1)c1cccnc1	> 4 mM (inactive)
CC(=O)Nc1ccc(S(N)(=O)=O)cc1	> 4 mM (inactive)
O=C1Nc2ccc(S(=O)(=O)NCCO)c3cccc1c23	> 4 mM (inactive)
CC1(C)Cc2cccc(C(=O)O)c2O1	> 4 mM (inactive)
O=C1NC(=S)NC(=O)C1=Cc1ccccc1O	> 4 mM (inactive)
CCOC(=O)c1[nH]cnc1C(=O)OC(C)C	> 4 mM (inactive)
Cc1ccccc1NC(=O)/C=C\C(N)=O	> 4 mM (inactive)
Cc1cc2nc3c(=O)[nH]c(=O)nc-3n(CC(O)C(O)C(O)CO)c2cc1C (configuration not stated)	> 4 mM (inactive)
O=C(O)c1cc(O)c2c(c1)C(=O)c1cc(O)cc(O)c1C2=O	> 4 mM (inactive)
CC1CCCN(C/C(O)=C(\C#N)c2nc3ccccc3[nH]2)C1 (configuration not stated)	> 4 mM (inactive)
CC(C)c1ccccc1NC(=O)c1cnccn1	> 4 mM (inactive)
CC(CC(=O)NN)C1(O)CCCCC1 (configuration not stated)	> 4 mM (inactive)
Cc1ccc(NC(=O)/C=C2\SC(=O)NC2=O)cc1	> 4 mM (inactive)
Cc1cccc(NC(=O)c2ccc(=O)[nH]n2)c1	> 4 mM (inactive)
c1ccc(CCc2nc(-c3ccncc3)no2)cc1	> 4 mM (inactive)
O=C1CCNc2cc3ccccc3cc21	> 4 mM (inactive)
CC(C)(C)c1cc(CN)c(C(=O)O)o1	> 4 mM (inactive)
OCc1snnc1-c1ccccc1	> 4 mM (inactive)
O=c1cccc2n1C[C@H]1CNCC2C1	> 4 mM (inactive)
Cc1nc2sc3c(c2c(=N)n1N)CC(C)(C)OC3	> 4 mM (inactive)
COc1ccc(/C=N/n2cn[nH]c2=S)cc1	> 4 mM (inactive)
O=C(O)CCC(=O)NCc1cccnc1	> 4 mM (inactive)
COc1cc2c(cc1-c1coc3c4c(c(OC)cc3c1=O)OC(C)(C)C=C4)OCO2	> 4 mM (inactive)

SMILES	Kd
O=C(COc1ccc(Cl)cc1Cl)N1CCOCC1	inactive
Nc1ccccc1OC(F)(F)F	> 4 mM (inactive)
O=C1CC(N2CCC(O)CC2)C(=O)N1c1ccc(F)cc1 (configuration not stated)	> 4 mM (inactive)
Cc1cc(OCC(=O)N2CCOCC2)c(C(C)C)cc1Cl	inactive
CC(=O)Nc1ccc(Nc2nnc(C)c(=O)[nH]2)cc1	> 4 mM (inactive)
Nc1ccc(N2CCOCC2)cc1	> 4 mM (inactive)
O=C1Nc2ccccc2C12OCCO2	> 4 mM (inactive)
Nc1ncnc(Nc2ccccc2C(F)(F)F)n1	> 4 mM (inactive)
Cc1ccccc1-n1c(-c2ccncc2)n[nH]c1=S	> 4 mM (inactive)
NCc1csc(-c2ccccc2)n1	> 4 mM (inactive)
COC(=O)c1ccc2nc[nH]c2c1	> 4 mM (inactive)
CC(=O)c1cc(CN2C(=O)c3ccccc3C2=O)cs1	> 4 mM (inactive)
CC(=O)O[C@@H]1CC2C(C)(CC[C@H](O)C2(C)C)C2CC[C@]3(C)C(=CC(=O)O[C@H]3c3ccoc3)C21C (some centres not stated)	> 4 mM (inactive)
NC(=O)C1CCN(CC2CC=CCC2)CC1 (configuration not stated)	> 4 mM (inactive)
CC(C)c1ccc(S(=O)(=O)CC(=O)N2CCOCC2C(=O)OCCCc2cccnc2)cc1 (configuration not stated)	inactive
COc1ccc(-c2coc3c(OC)c(OC)cc(OC)c3c2=O)cc1	> 4 mM (inactive)
O=C1NC(=Nc2ccccc2)S/C1=C/c1cccnc1	> 4 mM (inactive)
CCOC12NC(=O)CC(=O)N1C(c1ccccc1)=CS2 (configuration not stated)	> 4 mM (inactive)
COc1cccc(=O)c2c(C)n(C)c(C)c12	> 4 mM (inactive)
NCCCCNCCCN	> 4 mM (inactive)
O=c1c2ccccc2oc2ccc(O)cc12	> 4 mM (inactive)
